Molecules are shown by their SMILES. Non-standard residues stand in square brackets, D forms with d. Residues, ends and D or L forms follow the SMILES beside them. 1Nal = N[C@@H](Cc1cccc2ccccc12)C(=O)O; Nle = CCCC[C@H](N)C(=O)O; Aib = CC(C)(N)C(=O)O

In the test the target is T1, RXFP1 (Homo sapiens, UniProt Q9HBX9).
T1 sequence (Q9HBX9 1-757): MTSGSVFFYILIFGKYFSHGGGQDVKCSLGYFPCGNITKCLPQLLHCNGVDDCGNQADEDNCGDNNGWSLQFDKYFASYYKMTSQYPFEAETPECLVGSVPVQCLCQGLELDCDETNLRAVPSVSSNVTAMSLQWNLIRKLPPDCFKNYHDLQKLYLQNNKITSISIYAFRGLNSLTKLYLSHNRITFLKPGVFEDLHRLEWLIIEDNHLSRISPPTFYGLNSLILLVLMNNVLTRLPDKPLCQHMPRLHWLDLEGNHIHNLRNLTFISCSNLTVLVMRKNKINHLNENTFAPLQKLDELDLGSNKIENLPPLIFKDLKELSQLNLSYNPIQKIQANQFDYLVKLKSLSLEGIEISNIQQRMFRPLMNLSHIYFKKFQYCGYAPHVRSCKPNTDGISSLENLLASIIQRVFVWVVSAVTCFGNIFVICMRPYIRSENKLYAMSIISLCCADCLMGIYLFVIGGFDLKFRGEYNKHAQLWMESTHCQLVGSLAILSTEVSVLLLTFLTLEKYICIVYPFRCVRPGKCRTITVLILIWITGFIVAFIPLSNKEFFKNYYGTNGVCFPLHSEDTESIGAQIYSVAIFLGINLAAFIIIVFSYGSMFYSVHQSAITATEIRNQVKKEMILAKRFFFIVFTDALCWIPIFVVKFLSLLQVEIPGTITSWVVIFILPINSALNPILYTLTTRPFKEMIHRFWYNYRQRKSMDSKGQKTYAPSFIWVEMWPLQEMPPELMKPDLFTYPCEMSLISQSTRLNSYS
The experiment in a line: OVCAR5 cAMP assay (RXFP1 agonist activity, HTRF). Conditions: for Emax: OVCAR-5, read-out: cAMP assay in OVCAR 5 cells Emax, maximal intracellular cAMP relative to H2-relaxin in the same test occasion; for EC50: cAMP assay in OVCAR 5 cells EC50 (nM), OVCAR5 cells expressing endogenous RXFP1, cAMP by HTRF, 30 min at 37° C., 1 mM IBMX.

Turning to `CC[C@H](C)[C@H](NC(=O)[C@H](CCC(N)=O)NC(=O)[C@H](C)NC(=O)[C@H](CCCNC(=N)N)NC(=O)[C@@H](NC(=O)[C@H](CCCCN)NC(=O)[C@H](CCC(=O)O)NC(=O)[C@H](CCCNC(=N)N)NC(=O)CNC(=O)[C@H](CCC(=O)O)NC(=O)[C@@H](N)CC(C)C)C(C)C)C(=O)NC(C)(C)C(=O)N[C@H](C(=O)N[C@@H](CCC(=O)O)C(=O)NCC(=O)N[C@@H](CCSC)C(=O)N[C@@H](CO)C(=O)N[C@@H](CCCCN)C(=O)N[C@@H](Cc1c[nH]c2ccccc12)C(=O)N[C@@H](CO)C(=O)N[C@@H](CCCCN)C(=O)N[C@@H](CCCNC(=N)N)C(=O)N[C@@H](CCCCN)C(=O)N[C@@H](CCCCN)C(N)=O)[C@@H](C)CC` [compound 6] (H-LEGREKVRAQI[Aib]IEGMSKWSKRKK-NH2), the Emax (as a rule, the greatest response seen or fitted, relative to the assay's reference) was found to be 97%. Same read-out and setting: to `CC[C@H](C)[C@H](NC(=O)[C@H](CCC(N)=O)NC(=O)C(C)(C)NC(=O)[C@H](CCCNC(=N)N)NC(=O)[C@@H](NC(=O)[C@H](CCCCN)NC(=O)[C@H](CCC(=O)O)NC(=O)[C@H](CCCNC(=N)N)NC(=O)CNC(=O)[C@H](CCC(=O)O)NC(=O)[C@H](CC(C)C)NC(C)=O)C(C)C)C(=O)NC(C)(C)C(=O)N[C@H](C(=O)N[C@@H](CCC(=O)O)C(=O)NCC(=O)N[C@@H](CCSC)C(=O)N[C@@H](CO)C(=O)N[C@@H](CCCCN)C(=O)N[C@@H](Cc1c[nH]c2ccccc12)C(=O)N[C@@H](CO)C(=O)N[C@@H](CCCCN)C(=O)N[C@@H](CCCNC(=N)N)C(=O)N[C@@H](CCCCN)C(=O)N[C@@H](CCCCN)C(N)=O)[C@@H](C)CC` [compound 7] (Ac-LEGREKVR[Aib]QI[Aib]IEGMSKWSKRKK-NH2) belongs 101%; to `CCCC[C@H](NC(=O)CNC(=O)[C@H](CCC(=O)O)NC(=O)[C@@H](NC(=O)C(C)(C)NC(=O)[C@@H](NC(=O)[C@H](CCC(N)=O)NC(=O)[C@H](C)NC(=O)[C@H](CCCNC(=N)N)NC(=O)[C@@H](NC(=O)[C@H](CCCCN)NC(=O)[C@H](CCC(=O)O)NC(=O)[C@H](CCCNC(=N)N)NC(=O)CNC(=O)[C@H](CCC(=O)O)NC(=O)[C@H](CC(C)C)NC(C)=O)C(C)C)[C@@H](C)CC)[C@@H](C)CC)C(=O)N[C@@H](CO)C(=O)N[C@@H](CCCCN)C(=O)N[C@@H](Cc1c[nH]c2ccccc12)C(=O)N[C@@H](CO)C(=O)N[C@@H](CCCCN)C(=O)N[C@@H](CCCNC(=N)N)C(=O)N[C@@H](CCCCN)C(=O)N[C@@H](CCCCN)C(N)=O` [compound 8] (Ac-LEGREKVRAQI[Aib]IEG[Nle]SKWSKRKK-NH2), 103%. Regarding `CC[C@H](C)[C@H](NC(=O)[C@H](CCC(N)=O)NC(=O)[C@H](C)NC(=O)[C@H](CCCNC(=N)N)NC(=O)[C@@H](NC(=O)[C@H](CCCCN)NC(=O)[C@H](CCC(=O)O)NC(=O)[C@H](CCCNC(=N)N)NC(=O)CNC(=O)[C@H](CCC(=O)O)NC(=O)[C@H](CC(C)C)NC(C)=O)C(C)C)C(=O)NC(C)(C)C(=O)N[C@H](C(=O)N[C@@H](CCC(=O)O)C(=O)NCC(=O)N[C@@H](CCSC)C(=O)N[C@@H](CO)C(=O)N[C@@H](CCCCN)C(=O)N[C@@H](Cc1cccc2ccccc12)C(=O)N[C@@H](CO)C(=O)N[C@@H](CCCCN)C(=O)N[C@@H](CCCNC(=N)N)C(=O)N[C@@H](CCCCN)C(=O)N[C@@H](CCCCN)C(N)=O)[C@@H](C)CC` [compound 9] (Ac-LEGREKVRAQI[Aib]IEGMSK[1Nal]SKRKK-NH2), the Emax is 100%.

Take `CC[C@H](C)[C@H](NC(=O)[C@H](CCC(N)=O)NC(=O)[C@H](C)NC(=O)[C@H](CCCNC(=N)N)NC(=O)[C@@H](NC(=O)[C@H](CCCCN)NC(=O)[C@H](CCC(=O)O)NC(=O)[C@H](CCCNC(=N)N)NC(=O)CNC(=O)[C@H](CCC(=O)O)NC(=O)[C@H](CC(C)C)NC(C)=O)C(C)C)C(=O)NC(C)(C)C(=O)NC(C)(C)C(=O)N[C@@H](CCC(=O)O)C(=O)NCC(=O)N[C@@H](CCSC)C(=O)N[C@@H](CO)C(=O)N[C@H](C(=O)N[C@@H](Cc1c[nH]c2ccccc12)C(=O)N[C@@H](CO)C(=O)N[C@@H](CCCCN)C(=O)N[C@@H](CCCNC(=N)N)C(=O)N[C@@H](CCCCN)C(=O)N[C@@H](CCCCN)C(N)=O)[C@@H](C)O` [compound 10] (Ac-LEGREKVRAQI[Aib][Aib]EGMSTWSKRKK-NH2): the Emax came to 103%. On the same count and under the same terms, next, `CC[C@H](C)[C@H](NC(=O)[C@H](CCC(N)=O)NC(=O)[C@H](C)NC(=O)[C@H](CCCNC(=N)N)NC(=O)[C@@H](NC(=O)[C@H](CCCCN)NC(=O)[C@H](CCC(=O)O)NC(=O)[C@H](CCCNC(=N)N)NC(=O)CNC(=O)[C@H](CCC(=O)O)NC(=O)C(C)(C)NC(C)=O)C(C)C)C(=O)NC(C)(C)C(=O)NC(C)(C)C(=O)N[C@@H](CCC(=O)O)C(=O)NCC(=O)N[C@@H](CCSC)C(=O)N[C@@H](CO)C(=O)N[C@@H](CCCCN)C(=O)N[C@@H](Cc1c[nH]c2ccccc12)C(=O)N[C@@H](CO)C(=O)N[C@@H](CCCCN)C(=O)N[C@@H](CCCNC(=N)N)C(=O)N[C@@H](CCCCN)C(=O)N[C@@H](CCCCN)C(N)=O` [compound 11] (Ac-[Aib]EGREKVRAQI[Aib][Aib]EGMSKWSKRKK-NH2): 102%; `CC[C@H](C)[C@H](NC(=O)[C@H](CCC(N)=O)NC(=O)[C@H](C)NC(=O)[C@H](CCCNC(=N)N)NC(=O)[C@@H](NC(=O)[C@H](CCCCN)NC(=O)[C@H](CCC(=O)O)NC(=O)[C@H](CCCNC(=N)N)NC(=O)CNC(=O)[C@H](CCC(=O)O)NC(=O)C(C)(C)N)C(C)C)C(=O)NC(C)(C)C(=O)NC(C)(C)C(=O)N[C@@H](CCC(=O)O)C(=O)NCC(=O)N[C@@H](CCSC)C(=O)N[C@@H](CO)C(=O)N[C@@H](CCCCN)C(=O)N[C@@H](Cc1c[nH]c2ccccc12)C(=O)N[C@@H](CO)C(=O)N[C@@H](CCCCN)C(=O)N[C@@H](CCCNC(=N)N)C(=O)N[C@@H](CCCCN)C(=O)N[C@@H](CCCCN)C(N)=O` [compound 12] (H-[Aib]EGREKVRAQI[Aib][Aib]EGMSKWSKRKK-NH2): 99%; `CCCC[C@H](NC(=O)CNC(=O)[C@H](CCC(=O)O)NC(=O)C(C)(C)NC(=O)C(C)(C)NC(=O)[C@@H](NC(=O)[C@H](CCC(N)=O)NC(=O)[C@H](C)NC(=O)[C@H](CCCNC(=N)N)NC(=O)[C@@H](NC(=O)[C@H](CCCCN)NC(=O)[C@H](CCC(=O)O)NC(=O)[C@H](CCCNC(=N)N)NC(=O)CNC(=O)[C@H](CCC(=O)O)NC(=O)[C@H](CC(C)C)NC(C)=O)C(C)C)[C@@H](C)CC)C(=O)N[C@@H](CO)C(=O)N[C@H](C(=O)N[C@@H](Cc1c[nH]c2ccccc12)C(=O)N[C@@H](CO)C(=O)N[C@@H](CCCCN)C(=O)N[C@@H](CCCNC(=N)N)C(=O)N[C@@H](CCCCN)C(=O)N[C@@H](CCCCN)C(N)=O)[C@@H](C)O` [compound 13] (Ac-LEGREKVRAQI[Aib][Aib]EG[Nle]STWSKRKK-NH2): 97%. As for `CCCC[C@H](NC(=O)CNC(=O)[C@H](CCC(=O)O)NC(=O)C(C)(C)NC(=O)C(C)(C)NC(=O)[C@@H](NC(=O)[C@H](CCC(N)=O)NC(=O)[C@H](C)NC(=O)[C@H](CCCNC(=N)N)NC(=O)[C@@H](NC(=O)[C@H](CCCCN)NC(=O)[C@H](CCC(=O)O)NC(=O)[C@H](CCCNC(=N)N)NC(=O)CNC(=O)[C@H](CCC(=O)O)NC(=O)[C@H](CC(C)C)NC(C)=O)C(C)C)[C@@H](C)CC)C(=O)N[C@@H](CO)C(=O)N[C@@H](CCCCN)C(=O)N[C@@H](Cc1cccc2ccccc12)C(=O)N[C@@H](CO)C(=O)N[C@@H](CCCCN)C(=O)N[C@@H](CCCNC(=N)N)C(=O)N[C@@H](CCCCN)C(=O)N[C@@H](CCCCN)C(N)=O` [compound 14] (Ac-LEGREKVRAQI[Aib][Aib]EG[Nle]SK[1Nal]SKRKK-NH2), the Emax is 106% and the EC50 (usually the midpoint of the concentration-response curve) was found to be 32.8 nM.

For the molecule `CCCC[C@H](NC(=O)CNC(=O)[C@H](CCC(=O)O)NC(=O)C(C)(C)NC(=O)C(C)(C)NC(=O)[C@@H](NC(=O)[C@H](CCC(N)=O)NC(=O)[C@H](C)NC(=O)[C@H](CCCNC(=N)N)NC(=O)[C@@H](NC(=O)[C@H](CCCCN)NC(=O)[C@H](CCC(=O)O)NC(=O)[C@H](CCCNC(=N)N)NC(=O)CNC(=O)[C@H](CCC(=O)O)NC(=O)[C@H](CC(C)C)NC(C)=O)C(C)C)[C@@H](C)CC)C(=O)N[C@@H](CO)C(=O)N[C@H](C(=O)N[C@@H](Cc1cccc2ccccc12)C(=O)N[C@@H](CO)C(=O)N[C@@H](CCCCN)C(=O)N[C@@H](CCCNC(=N)N)C(=O)N[C@@H](CCCCN)C(=O)N[C@@H](CCCCN)C(N)=O)[C@@H](C)O` [compound 15] (Ac-LEGREKVRAQI[Aib][Aib]EG[Nle]ST[1Nal]SKRKK-NH2), the Emax worked out at 104% and a half-maximal response (EC50) required 24.4 nM.

For the origin of these results see patent publication US10988524B2, “Modified relaxin B chain peptides and their therapeutic use” (priority 2018, dated 2021).
